Measurements: publication PMC6681416, “Novel Derivatives of Deoxycholic Acid Bearing Linear Aliphatic Diamine and Aminoalcohol Moieties and their Cyclic Analogs at the C3 Position: Synthesis and Evaluation of Their In Vitro Antitumor Potential” (Molecules, 2019)

What was measured:
[1] = test system: non-transformed human fibroblasts hFF3; experiment: MTT cytotoxicity assay, hFF3; assay type: cell-based; conditions: HFF-3, 24 h, read-out: IC50 hFF3 (fibroblast)
Text: (§1) According to our previous data and data published by other research groups, chemical transformations of bile acids can greatly improve their antitumor potential. Thus, as the first step of evaluation of the biological activities of our novel DCA derivatives we assessed their effects on tumor cell viability. The cytotoxicity of the compounds was investigated with respect to a panel of cultured cell lines, including human duodenal HuTu-80, hepatocellular HepG2, cervical KB-3-1 and lung A549 carcinomas as well as murine macrophage RAW264.7 and non-transformed human fibroblasts hFF3 by MTT assay.
Human duodenal carcinoma HuTu-80 cells, human hepatocellular carcinoma HepG2 cells, human cervical carcinoma KB-3-1 cells, human lung carcinoma A549 cells were obtained from the Russian Cell Culture Collection (Institute of Cytology, RAS, St. Petersburg, Russia). Non-transformed human fibroblasts hFF3 were kindly provided by Dr. Olga Koval (Institute of Chemical Biology and Fundamental Medicine, SB RAS, Novosibirsk, Russia). RAW264.7 macrophages were kindly provided by Prof. Dr. Dmitry Kuprash (Engelhardt Institute of Molecular Biology, RAS, Moscow, Russia). The cells were cultured in DMEM (Sigma-Aldrich Inc., St. Louis, MO, USA) supplemented with 10% (v/v) heat-inactivated fetal bovine serum (FBS) (BioloT, St. Petersburg, Russia), 100 U/mL penicillin (ICN Biomedicals Inc., Costa Mesa, CA, USA), 100 µg/mL streptomycin and 0.25 µg/mL amphotericin; additionally, in the case of RAW264.7 cells, concentration of glucose in the medium was increased up to 4.5 mg/mL. The cells were incubated at 37 °C in 5% CO2 and 95% air (hereafter referred to as standard conditions). […]
Cells were seeded in triplicate in 96-well plates at a density of 5 × 10^3 (HuTu-80, HepG2, KB-3-1, hFF3), 10^4 (A549) or 5 × 10^4 (RAW264.7) cells per well. […] The crystals of formazan forming within live cells were solubilized with DMSO and the absorbance was measured in a Multiscan RC plate reader (Thermo LabSystems, Helsinki, Finland) at a test and reference wavelengths of 570 nm and 620 nm, respectively. […]

[2] = test system: panel of cultured cell lines (HuTu-80, HepG2, KB-3-1, A549, RAW264.7, hFF3); experiment: MTT cytotoxicity, range over the panel of tested cell lines; assay type: cell-based; conditions: 24 h, summary of Table 1 (for 2–10 partly from ref [21])
Text: as §1
Cells were seeded in triplicate in 96-well plates at a density of 5 × 10^3 (HuTu-80, HepG2, KB-3-1, hFF3), 10^4 (A549) or 5 × 10^4 (RAW264.7) cells per well. Cells were incubated under standard conditions for 24 h and then they were treated with varying doses of investigated derivatives for subsequent 24 h. Then 10 µL of MTT solution (5 mg/mL) were added to each wells and cells were incubated for an additional 2 h under standard conditions. The crystals of formazan forming within live cells were solubilized with DMSO and the absorbance was measured in a Multiscan RC plate reader (Thermo LabSystems, Helsinki, Finland) at a test and reference wavelengths of 570 nm and 620 nm, respectively. […]

A549 cells = experiment: MTT cytotoxicity assay, A549; assay type: cell-based, human
Text: as §1
(§2) Human duodenal carcinoma HuTu-80 cells, human hepatocellular carcinoma HepG2 cells, human cervical carcinoma KB-3-1 cells, human lung carcinoma A549 cells were obtained from the Russian Cell Culture Collection (Institute of Cytology, RAS, St. Petersburg, Russia). Non-transformed human fibroblasts hFF3 were kindly provided by Dr. Olga Koval (Institute of Chemical Biology and Fundamental Medicine, SB RAS, Novosibirsk, Russia). RAW264.7 macrophages were kindly provided by Prof. Dr. Dmitry Kuprash (Engelhardt Institute of Molecular Biology, RAS, Moscow, Russia). The cells were cultured in DMEM (Sigma-Aldrich Inc., St. Louis, MO, USA) supplemented with 10% (v/v) heat-inactivated fetal bovine serum (FBS) (BioloT, St. Petersburg, Russia), 100 U/mL penicillin (ICN Biomedicals Inc., Costa Mesa, CA, USA), 100 µg/mL streptomycin and 0.25 µg/mL amphotericin; additionally, in the case of RAW264.7 cells, concentration of glucose in the medium was increased up to 4.5 mg/mL. The cells were incubated at 37 °C in 5% CO2 and 95% air (hereafter referred to as standard conditions). DCA derivatives were dissolved in DMSO to yield stock solutions of 10 mmol/L and stored at −20 °C prior to use.
(§3) Cells were seeded in triplicate in 96-well plates at a density of 5 × 10^3 (HuTu-80, HepG2, KB-3-1, hFF3), 10^4 (A549) or 5 × 10^4 (RAW264.7) cells per well. Cells were incubated under standard conditions for 24 h and then they were treated with varying doses of investigated derivatives for subsequent 24 h. Then 10 µL of MTT solution (5 mg/mL) were added to each wells and cells were incubated for an additional 2 h under standard conditions. The crystals of formazan forming within live cells were solubilized with DMSO and the absorbance was measured in a Multiscan RC plate reader (Thermo LabSystems, Helsinki, Finland) at a test and reference wavelengths of 570 nm and 620 nm, respectively. […] To perform SAR analysis, hierarchical clustering of compounds based on their IC50 values was fulfilled with Euclidean distance by using the Morpheus tool (https://software.broadinstitute.org/morpheus/), a platform designed for visualization and analysis of data in a matrix format. Heatmap, containing compounds’ SI values, were constructed by using the Excel 2010 software (Microsoft, Redmond, WA, USA). In order to reveal whether ROS participate in the induction of cell death by compound 9, HuTu-80 cells cultured in 96-well plate were pretreated by NAC at 2 mM for 1 h. Thereafter, the medium was replaced by fresh medium with compound 9 at 8 µM and the cells were incubated with subsequent 24 h under standard conditions. After this time period, the curves of cytotoxicity of compound 9 in the presence or absence of NAC were compared.

HuTu-80 cells [3] = experiment: Mitochondrial membrane potential (JC-1); assay type: cell-based, human; conditions: 8 µM, control 18.7%
Experimental: Next, in order to identify whether the compound 9 induces apoptotic cell death by triggering mitochondrial dysfunction, we analyzed its effect on mitochondrial membrane potential (Δψm) in HuTu-80 cells by using fluorescent cationic JC-1 dye (Figure 2B).
The mitochondrial-specific cationic dye JC-1 (Molecular Probes, Invitrogen, Carlsbad, CA, USA) accumulating in the mitochondria by potential-dependent manner was used to detect the effect of compound 9 on ∆ψM. Briefly, HuTu-80 cells were seeded in 6-well plates at a density of 5 × 10^5 cells/well for 24 h. Then cells were treated by compound 9 at 8 µM for 6, 18 or 24 h, collected by trypsinization, washed with PBS, and JC-1 (5 µg/mL) was added to the cells. After 30 min of incubation at 37 °C, the cells were centrifuged, washed with PBS and analyzed using NovoCyte Flow Cytometer (ACEA Biosciences Inc.).

KB-3-1 cells = experiment: MTT cytotoxicity assay, KB-3-1; assay type: cell-based, human
Text: as §1, §2, §3

HuTu-80 cells [4] = experiment: Cell cycle assay (PI, flow cytometry); assay type: cell-based, human; conditions: 8 µM
Experimental: To determine the effect of compound 9 on the cell cycle, HuTu-80 cells were seeded in 6-well plates at a density of 5 × 10^5 cells/well for 24 h. After incubation, cells were treated with compound 9 at 8 µM for 6, 18 or 24 h. Thereafter, cells were collected by trypsinization, washed with cold PBS and fixed in 70% ice-cold ethanol for 30 min at 4 °C. Fixed cells were pelleted, stained with PI (1 mg/mL) for 15 min at 37 °C in the dark and analyzed using NovoCyte Flow Cytometer (ACEA Biosciences Inc.). Ten thousand events were recorded for each sample.

HepG2 cells = experiment: MTT cytotoxicity assay, HepG2; assay type: cell-based, human
Text: as §1, §2, §3

With `COC(=O)CC[C@@H](C)[C@H]1CC[C@H]2[C@@H]3CC[C@@H]4CC(O)(CNCCCO)CC[C@]4(C)[C@H]3CC(=O)[C@]12C` (stereo partly drawn) [Compound 9, Methyl 3-hydroxy-3-((3-hydroxypropylamino)methyl)-12-oxo-5β-cholan-24-oate] the IC50 [1] was 33.3 ± 1.2 µM, the IC50 [2] was 4 to 33.3 µM and the IC50 (A549 cells; Homo sapiens, A549, MTT, 24 h, read-out: IC50 A549 (lung)) was 29 ± 3.5 µM. The “Selectivity index A549” value (A549 cells; ratio IC50 hFF3 / IC50 A549) was 1.1, the “cells with collapsed membrane potential (Low MMP)” value (“cells” for short) (HuTu-80 cells [3]; 6 h) was 38.2% and the “cells” value (HuTu-80 cells [3]; 18 h) was 68.6%. The “cells” value (HuTu-80 cells [3]; 24 h) was 78.8%, the IC50 (KB-3-1 cells; Homo sapiens, KB 3-1, MTT, 24 h, read-out: IC50 KB3-1 (cervix)) was 22.8 ± 1.8 µM and the “Selectivity index KB-3-1” value (KB-3-1 cells; ratio IC50 hFF3 / IC50 KB-3-1) was 1.4. For the same compound, the subG1 cell population (HuTu-80 cells [4]; 6 h) was 7.4%, the subG1 cell population (HuTu-80 cells [4]; 18 h) was 30.0% and the subG1 cell population (HuTu-80 cells [4]; 24 h) was 41.1%. The IC50 (HepG2 cells; Homo sapiens, HepG2, MTT, 24 h, read-out: IC50 HepG2 (liver)) was 7.3 ± 0.6 µM and the “Selectivity index HepG-2” value (HepG2 cells; ratio IC50 hFF3 / IC50 HepG2) was 4.5.
